Measured values taken from patent US20070281857A1, “FORMIC ACID AS AN HERBICIDE” (MARRONE ORGANIC INNOVATIONS, priority 2006, published 2007).
Like-named read-outs stand apart in the source and are kept apart here.

Columns and labels:
[1] = tested on: dicotyledonous radish plants (Raphanus sativas); conditions: foliar spray at all concentrations (1%, 3%, 5%); one day post-treatment
Description: (§1) In order to determine whether formic acid could be used as a foliar herbicide it was applied as a foliar spray to the leaves of dicotyledonous radish plants (Raphanus sativas) and monocotyledonous wheat plants (Triticum aestivum). Solutions were applied to plants using a small handheld sprayer.
(§2) Formic acid and acetic acid solutions at three concentrations (1%, 3%, 5%) were applied and water was used as a check. A barrier was inserted between the rows of plants on either side of the row being treated to avoid drift of sprays into neighboring rows. Plants were evaluated at 24-hour and 72-hour intervals for the number of surviving plants and a percentage was derived from this number in comparison with the number of plants originally present in the row.

[2] = tested on: monocotyledonous wheat plants (Triticum aestivum); conditions: one day post-treatment
Description: as §1, §2

apple seedlings = tested on: apple seedlings
Procedure: In order to estimate the length of time during which the presence of formic acid in the soil would have a negative effect on new, and perhaps desirable, plantings, a residue study was performed. Holes were cut into the bottoms of flats. The flats were then filled with soil and treated with charcoal immersed in either formic acid or water, just as described above. Soil was watered regularly in order to simulate natural growing conditions and soil leaching. Ten apple seedlings were planted in individual flats containing one treatment or the other at intervals of one week and survival was monitored for one week following each planting.

[3] = tested on: Lactuca sativa (lettuce) seed; conditions: stepwise dilution series from 25% to 0%
Description: Numerous natural compounds were screened for their ability to inhibit the germination of dicot seeds. A single seed of Lactuca sativa (lettuce) was placed in each well of a 96-well plate followed by a solution of each compound in a stepwise dilution series from 25% to 0%. Germination was monitored daily.

[4] = tested on: Poa annua (annual bluegrass); conditions: one week, relative to control
Procedure: (§3) To further test the inhibitory effect of formic acid on germinating seeds, pots with 6-cm diameter were filled with 60 mL of silty clay loam soil passed through a 2-mm sieve, and five (5) seeds of either Taraxacum officinale (dandelion, representing a broadleaved weed) or Poa annua (annual bluegrass, representing a grass weed) were planted on the top. A solid form of the composition containing corn gluten meal granules (1-2 mm diameter) soaked in 0%, 5%, 10% or 20% formic acid solution and dried were placed on the top of the soil at rates 0.1, 0.25, 0.5 and 1.0 g/pot. The pots were kept at optimum water content under growth lights with a 12-h light/dark period at room temperature, and the number of germinated seeds was counted after one week.

[5] = tested on: Taraxacum officinale (dandelion); conditions: one week, relative to control
Procedure: as §3

Lactuca sativa (lettuce) = conditions: for germination rate potting mix clay / germination rate soil (silty clay loam) clay / germination rate potting mix corn starch / germination rate soil (silty clay loam) corn starch / germination rate potting mix sand / germination rate soil (silty clay loam) sand: 7 days, relative to untreated control
Procedure: To test different carriers for formic acid, corn starch (powder), clay (granular, >2 mm diameter) and sand (small grain) were saturated with formic acid solutions (1, 3, and 5%) and dried at room temperature. Dry product (7.5 mL) was mixed with 60 mL of either potting mix or soil, and the mixture was placed in a small pot. Five (5) seeds of Lactuca sativa (lettuce) were planted on the top of each pot, and the seeds were covered with sand. The pots were incubated at room temperature under continuous light for 7 days, after which the number of seeds germinated in each pot was recorded and presented as a germination rate relative to the untreated control.

[6] = tested on: Seedlings of Lactuca sativa (lettuce)
Procedure: A high-throughput 96-well assay was used to test the efficacy of formic acid as a post-emergence, non-selective herbicide. Seedlings of Lactuca sativa (lettuce) were grown in 96-well plates under continuous light. Formic acid was added on the seedlings at a 5x-dilution series from 20% to 0%, and the minimum concentration needed for killing the seedling was recorded the next day.

monocots (wheat) = conditions: solution in water at 0.5% and 0.1%
Description: (§4) Numerous natural compounds were screened for their ability to inhibit the germination of seeds. A single seed was placed in each well of a 96-well plate followed by a solution of each compound in water at both 0.5% and 0.1%. Germination was monitored at varying intervals, depending on the germination time in the control groups for the particular seed being used in the study.

dicots (radishes) = conditions: solution in water at 0.5% and 0.1%
Description: as §4

monocot seeds = conditions: charcoal saturated at 1 mL acid/1 g charcoal, applied to soil in flats; FIG. 1
Description: (§5) Charcoal was applied to soil in flats containing a known number of seeds, either monocot or dicot, and germination was monitored in each of the treatment groups following intervals determined by the rate of germination in controls.

dicot seeds = conditions: charcoal saturated at 1 mL acid/1 g charcoal, applied to soil in flats; FIG. 2
Description: as §5

[7] = 5% formic acid in corn gluten meal granules 1-2 mm, 0.1 g/pot
[8] = 5% formic acid in corn gluten meal granules 1-2 mm, 0.25 g/pot
[9] = 5% formic acid in corn gluten meal granules 1-2 mm, 0.5 g/pot
[10] = 5% formic acid in corn gluten meal granules 1-2 mm, 1 g/pot
[11] = 10% formic acid in corn gluten meal granules 1-2 mm, 0.1 g/pot
[12] = 10% formic acid in corn gluten meal granules 1-2 mm, 0.25 g/pot
[13] = 10% formic acid in corn gluten meal granules 1-2 mm, 0.5 g/pot
[14] = 10% formic acid in corn gluten meal granules 1-2 mm, 1 g/pot
[15] = 20% formic acid in corn gluten meal granules 1-2 mm, 0.1 g/pot
[16] = 20% formic acid in corn gluten meal granules 1-2 mm, 0.25 g/pot
[17] = 20% formic acid in corn gluten meal granules 1-2 mm, 0.5 g/pot
[18] = 20% formic acid in corn gluten meal granules 1-2 mm, 1 g/pot
[19] = 20% formic acid in corn gluten meal granules 1-2 mm, 1 g/pot, listed as formic acid

O=CO [Formic acid]
killing of foliage of radish plants [1]: completely killed all the foliage | wheat foliage killed ([2]; foliar spray 1%): none of the foliage killed | wheat plants killed ([2]; foliar spray 5%): 10% | survival of planted seedlings (apple seedlings; "By week 1, however, and in all subsequent weeks", identical to water group): 100% | residual herbicidal effect lasting (apple seedlings; formic acid on charcoal in watered soil): less than one week | planted seedlings survived (apple seedlings; week 1, flats treated with charcoal immersed in formic acid, water flats 100 percent): 80% | threshold value to inhibit germination of seeds [3]: 0.0013% | germination rate (%) annual bluegrass [4, 7]: 100% | germination rate (%) annual bluegrass [4, 8]: 82% | germination rate (%) annual bluegrass [4, 9]: 82% | germination rate (%) annual bluegrass [4, 10]: 82% | germination rate (%) annual bluegrass [4, 11]: 100% | germination rate (%) annual bluegrass [4, 12]: 100% | germination rate (%) annual bluegrass [4, 13]: 54% | germination rate (%) annual bluegrass [4, 14]: 54% | germination rate (%) annual bluegrass [4, 15]: 100% | germination rate (%) annual bluegrass [4, 16]: 54% | germination rate (%) annual bluegrass [4, 17]: 27% | germination rate (%) annual bluegrass [4, 18]: 0% | germination rate (%) annual bluegrass [4, 19]: inhibited the germination | germination rate (%) dandelion [5, 7]: 100% | germination rate (%) dandelion [5, 8]: 50% | germination rate (%) dandelion [5, 9]: 0% | germination rate (%) dandelion [5, 10]: 0% | germination rate (%) dandelion [5, 11]: 0% | germination rate (%) dandelion [5, 12]: 0% | germination rate (%) dandelion [5, 13]: 0% | germination rate (%) dandelion [5, 14]: 100% | germination rate (%) dandelion [5, 15]: 0% | germination rate (%) dandelion [5, 16]: 0% | germination rate (%) dandelion [5, 17]: 0% | germination rate (%) dandelion [5, 18]: 0% | germination rate (%) dandelion [5, 19]: inhibited the germination | germination rate potting mix clay (Lactuca sativa (lettuce); 1% formic acid on clay): 100 | germination rate soil (silty clay loam) clay (Lactuca sativa (lettuce); 1% formic acid on clay): 100 | germination rate potting mix corn starch (Lactuca sativa (lettuce); 1% formic acid on corn starch): 100 | germination rate soil (silty clay loam) corn starch (Lactuca sativa (lettuce); 1% formic acid on corn starch): 100 | germination rate potting mix sand (Lactuca sativa (lettuce); 1% formic acid on sand): 100 | germination rate soil (silty clay loam) sand (Lactuca sativa (lettuce); 1% formic acid on sand): 100 | germination rate potting mix clay (Lactuca sativa (lettuce); 3% formic acid on clay): 80 | germination rate soil (silty clay loam) clay (Lactuca sativa (lettuce); 3% formic acid on clay): 100 | germination rate potting mix corn starch (Lactuca sativa (lettuce); 3% formic acid on corn starch): 100 | germination rate soil (silty clay loam) corn starch (Lactuca sativa (lettuce); 3% formic acid on corn starch): 75 | germination rate potting mix sand (Lactuca sativa (lettuce); 3% formic acid on sand): 80 | germination rate soil (silty clay loam) sand (Lactuca sativa (lettuce); 3% formic acid on sand): 100 | control of germination of lettuce, comparison of tested products (Lactuca sativa (lettuce); 5% formic acid imbedded in clay granules): best control of germination | germination rate potting mix clay (Lactuca sativa (lettuce); 5% formic acid on clay): 60 | germination rate soil (silty clay loam) clay (Lactuca sativa (lettuce); 5% formic acid on clay): 50 | germination rate potting mix corn starch (Lactuca sativa (lettuce); 5% formic acid on corn starch): 100 | germination rate soil (silty clay loam) corn starch (Lactuca sativa (lettuce); 5% formic acid on corn starch): 100 | germination rate potting mix sand (Lactuca sativa (lettuce); 5% formic acid on sand): 20 | germination rate soil (silty clay loam) sand (Lactuca sativa (lettuce); 5% formic acid on sand): 100 | minimum concentration needed for killing the seedling ([6]; 5x-dilution series from 20% to 0%, recorded the next day): 0.8% | effect on lettuce seedling ([6]; formic acid 0.16%, next day): not harmful for the plant | ability to inhibit germination of seeds (monocots (wheat)): inhibit germination of seeds | ability to inhibit germination of seeds (dicots (radishes)): inhibit germination of seeds | effect on the germination of monocot seeds (monocot seeds): profound effect | effect on the germination of dicot seeds (dicot seeds): profound effect
